In article PMC12858582, “A coral-derived neuropeptide suppresses pentylenetetrazol (PTZ)-induced epileptic seizures and improves recognition memory deficits by modulating NPY-Y1R” (Archives of Toxicology, 2025):
Where no end group is shown, it is not given here.

Key:
C57BL/6 J mice [1] = assay: PTZ-kindling-induced epileptic mice model; assay type: in vivo
Experimental: The PTZ-kindling-induced epileptic mice model was monitored as previously described (Singh et al. [2021]). PTZ (30 mg/kg, subconvulsive dose) was dissolved in saline and administered via intraperitoneal injection. TpNPY was dissolved in saline and delivered through daily intravenous injection of increasing concentrations (0.25 mg/kg, 0.5 mg/kg and 1 mg/kg) 30 min before PTZ injections for 14 consecutive days. Randomized grouping was used to divide C57BL/6 mice into 7 groups with 10 mice in each group. Then, behavioral observation was carried out at the same time, until the seizure of mice was kindled. The PTZ-only group was not exposed to TpNPY, and the control group was only given saline.

HT22 cells = assay: HT22 cell viability (MTT assay); assay type: cell-based, mouse; settings: for cell viability: 24 h
Experimental: The HT22 cell line was obtained from the ATCC (Manassas, VA, USA) and cultured in DMEM medium with an additional 10% fetal bovine serum (Gibco, US origin), 1% penicillin (100 U/mL) and streptomycin 100 (µg/mL) in a humidified 5% CO2 atmosphere at 37 °C. Cell viability was evaluated by measuring the activity of mitochondrial dehydrogenases with 3-(4,5-dimethyl-2-thiazolyl) 2,5 diphenyl-2H-tetrazolium bromide (MTT) assay (Sigma-Aldrich, USA). Briefly, HT22 cells were seeded in 96-well plates at a density of 8 × 10^3 cells per well. After various drug incubation, cells were incubated in 0.5 mg/mL MTT solution for 4 h at 37 °C. The supernatant medium was then discarded, and 100 µL of DMSO per well was added to dissolve the violet-formazan crystals. The absorbance at 570 nm wavelength was then tested by SpectraMax M5 (Wallac, The Netherlands). Under the same cell culture conditions as the cell viability assay, cytotoxicity was also evaluated via LDH release using an LDH assay kit (Beyotime, China). After different treatments, the supernatant of the cell culture medium was collected and tested according to the manufacturer’s protocol. The absorbance at 490 nm wavelength of supernatant was recorded by SpectraMax M5 (Wallac, The Netherlands).

C57BL/6 J mice [2] = assay: Morris water maze (MWM) test; assay type: in vivo; settings: MWM test stage, n = 6
Experimental: The Morris Water Maze (MWM) test assessed spatial learning and memory in mice (Bromley-Brits et al. [2011]). A circular pool (opaque with milk powder) was divided into four quadrants, with a hidden platform submerged in the third quadrant. Eight-week-old male C57BL/6 J mice were trained over five days (4 trials/day) to locate the platform, guided by visual cues. Escape latency (max 60 s) and platform stay time (30 s) were recorded. A probe trial (platform removed) was conducted 24 h post-training, recording time to the platform site, crossings, speed, and distance via a video camera connected to the ANY-maze Video Tracking System.

zebrafish larvae = assay: Zebrafish larvae survival/mortality; assay type: in vivo; settings: 24 h exposure, 6-dpf AB wild-type larvae
Experimental: The 6-day post-fertilization (6-dpf) AB wild-type zebrafish were treated with various concentrations of TpNPY for 24 h in zebrafish-specific E3 culture medium. The mortality of zebrafish was calculated based on the observation of their heartbeat. To trigger seizures, zebrafish larvae were subjected to zebrafish culture medium containing 10 mM PTZ (Sigma-Aldrich, purity ≥ 99%) in 96-well plates. Their locomotor behaviors were recorded using a digital video tracking system (ViewPoint Behavior Technology, France).

[3] = target: T1, NPY-Y1 receptor (NPY-Y1R) (Homo sapiens, UniProt P25929); assay: SPR
T1 chain: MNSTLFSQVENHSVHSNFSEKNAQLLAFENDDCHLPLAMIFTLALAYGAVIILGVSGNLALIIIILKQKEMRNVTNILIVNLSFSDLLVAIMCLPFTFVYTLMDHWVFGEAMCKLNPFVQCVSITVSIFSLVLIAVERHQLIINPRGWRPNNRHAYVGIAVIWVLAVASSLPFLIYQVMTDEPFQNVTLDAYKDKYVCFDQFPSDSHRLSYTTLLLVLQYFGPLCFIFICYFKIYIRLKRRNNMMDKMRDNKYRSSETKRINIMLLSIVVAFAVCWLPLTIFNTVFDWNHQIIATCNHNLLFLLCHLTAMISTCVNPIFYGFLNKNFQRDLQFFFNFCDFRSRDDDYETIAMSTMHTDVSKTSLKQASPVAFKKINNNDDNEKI

Q: With `C1CCc2nnnn2CC1` [PTZ, Pentylenetetrazole, reference compound] as the molecule, how does the seizure score (C57BL/6 J mice [1]; PTZ-treated group, PTZ 30 mg/kg i.p., no TpNPY, after 15 injections, mean ± SEM, SEM) read?
A: Its seizure score is 4.91 ± 0.41.

Q: Which cell viability (HT22 cells; 10 mM glutamate) does the source give for `N[C@@H](CCC(=O)O)C(=O)O` [glutamate] here?
A: The cell viability was 78.22%.

Q: What about the cell viability (HT22 cells; 15 mM glutamate) of the same molecule?
A: Its cell viability is 64.78%.

Q: And the cell viability (HT22 cells; 20 mM glutamate)?
A: Its cell viability is 40.82%.

Q: With “VGGPPKRPESFKSMAELNAYLSDLAGYYTVIGRPRF-NH2 [TpNPY]” as the molecule, how does the swimming speed (C57BL/6 J mice [2]) read?
A: The swimming speed was “without affecting swimming speed”.

Q: And the “cell viability (cytotoxicity of TpNPY)” value (HT22 cells; 1.56 to 50 μM, 24 h incubation)?
A: The value was “did not elicit any significant changes in cell viability”.

Q: What about the “behavior of mice, TpNPY alone” value (C57BL/6 J mice [1]; TpNPY without PTZ) of the same molecule?
A: Its value is “no obvious influence on the behavior of mice”.

Q: What about the “mortality rate of zebrafish larvae” value (zebrafish larvae; 40 μM) of the same molecule?
A: The value was “approximately 50%”.

Q: What about the “survival rate of zebrafish larvae” value (zebrafish larvae; 6-25 μM) of the same molecule?
A: Its value is “did not lead to any substantial changes in the survival rate”.

B1: TpNPY (peptide)
chain: VGGPPKRPESFKSMAELNAYLSDLAGYYTVIGRPRF-NH2
Q: How did the Kd [3] turn out when B1 was run?
A: Its Kd is 1980 nM.
